Like-named read-outs stand apart in the source and are kept apart here.
System: RPMI8226 multiple myeloma (MM) human cell lines
Assay: Cytotoxic effect of CBD, THC and combinations on RPMI8226 cells
Assay type: cell-based
Conditions: for IC50: Homo sapiens; for survival of MM cells (in words): concentration dependent manner, FIG. 2; for survival of RPMIS MM cells: concentration of about 20 μM and higher
Experimental: This example examines the cytotoxic effect of CBD alone, THC alone and combinations of both compounds. The cytotoxic effect of CBD, THC and their combinations in different ratios such as CBD: THC 1:1; CBD: THC 5:1 and CBD: THC 1:5 were evaluated on RPMI8226 multiple myeloma (MM) human cell lines. Reference is now made to FIG. 2 which presents a graph of RPMIS MM cell line survival (%) vs. concentration (μM).

## C=C(C)[C@@H]1CCC(C)=C[C@H]1c1c(O)cc(CCCCC)cc1O [CBD, cannabidiol]
RPMI-8226, RPMI8226 (RPMIS) MM cells, read-out: dose that caused 50% of MM cell death
  IC50: 16 µM
  survival of MM cells (in words): decreased the survival
  survival of RPMIS MM cells: about 50%

## CCCCCc1cc(O)c2c(c1)OC(C)(C)[C@@H]1CCC(C)=C[C@@H]21 [THC, Tetrahydrocannabinol]
RPMI-8226, read-out: dose that caused 50% of MM cell death
  IC50: 22 µM
  survival of MM cells (in words): decreased the survival
  survival of RPMIS MM cells: about 50%

Source: patent US20180185324A1, “NOVEL CANNABINOID COMBINATION THERAPIES FOR MULTIPLE MYELOMA (MM)” (ONE WORLD CANNABIS LTD, priority 2015, published 2018)
